Test system: hepatocytes
Experiment: Seq-Well scRNA-Seq of hepatocytes after APAP overdose (signature scores, DEG vs untreated)
Format: in vivo, mouse

CC(=O)Nc1ccc(O)cc1 [APAP, acetaminophen]
Ubb A48logFC (A48 vs UT): −0.2644
0610005C13Rik avg_logFC (A96 vs untreated (UT)): 0.2979
0610005C13Rik pct.1 (A96 vs untreated (UT)): 0.816
0610007P14Rik avg_logFC (A96 vs untreated (UT)): 0.2519
0610007P14Rik pct.1 (A96 vs untreated (UT)): 0.512
8430408G22Rik avg_logFC (A96 vs untreated (UT)): 0.2527
8430408G22Rik pct.1 (A96 vs untreated (UT)): 0.559
Abca6 avg_logFC (A96 vs untreated (UT)): 0.2823
Abca6 pct.1 (A96 vs untreated (UT)): 0.686
Abcb4 avg_logFC (A96 vs untreated (UT)): 0.4758
Abcb4 pct.1 (A96 vs untreated (UT)): 0.878
Abcc3 pct.1 (A96 vs untreated (UT)): 0.733
Acad11 avg_logFC (A96 vs untreated (UT)): 0.2578
Acad11 pct.1 (A96 vs untreated (UT)): 0.711
Acadl avg_logFC (A96 vs untreated (UT)): 0.2937
Acadl pct.1 (A96 vs untreated (UT)): 0.8
Acat1 avg_logFC (A96 vs untreated (UT)): 0.3485
Acat1 pct.1 (A96 vs untreated (UT)): 0.917
Acbd5 avg_logFC (A96 vs untreated (UT)): 0.4341
Acbd5 pct.1 (A96 vs untreated (UT)): 0.87
Acot1 avg_logFC (A96 vs untreated (UT)): 0.298
Acot1 pct.1 (A96 vs untreated (UT)): 0.459
Acot4 avg_logFC (A96 vs untreated (UT)): 0.268
Acot4 pct.1 (A96 vs untreated (UT)): 0.328
Acot12 avg_logFC (A96 vs untreated (UT)): 0.2957
Acot12 pct.1 (A96 vs untreated (UT)): 0.65
Acsl1 avg_logFC (A96 vs untreated (UT)): 0.2915
Acsl1 pct.1 (A96 vs untreated (UT)): 0.977
Actn4 avg_logFC (A96 vs untreated (UT)): 0.2609
Actn4 pct.1 (A96 vs untreated (UT)): 0.6
Agpat6 avg_logFC (A96 vs untreated (UT)): 0.4098
Agpat6 pct.1 (A96 vs untreated (UT)): 0.743
Agt avg_logFC (A96 vs untreated (UT)): 0.3765
Agt pct.1 (A96 vs untreated (UT)): 0.912
Akr1c6 avg_logFC (A96 vs untreated (UT)): −0.359
Akr1c6 pct.1 (A96 vs untreated (UT)): 0.967
Akr1d1 avg_logFC (A96 vs untreated (UT)): 0.3787
Akr1d1 pct.1 (A96 vs untreated (UT)): 0.721
Aldh2 avg_logFC (A96 vs untreated (UT)): 0.304
Aldh2 pct.1 (A96 vs untreated (UT)): 0.995
Aldh3a2 avg_logFC (A96 vs untreated (UT)): 0.4933
Aldh3a2 pct.1 (A96 vs untreated (UT)): 0.687
Aldh6a1 avg_logFC (A96 vs untreated (UT)): 0.2669
Aldh6a1 pct.1 (A96 vs untreated (UT)): 0.829
Aldh9a1 avg_logFC (A96 vs untreated (UT)): 0.3633
Aldh9a1 pct.1 (A96 vs untreated (UT)): 0.884
Amy1 avg_logFC (A96 vs untreated (UT)): 0.4212
Amy1 pct.1 (A96 vs untreated (UT)): 0.831
Angptl3 avg_logFC (A96 vs untreated (UT)): 0.6936
Angptl3 pct.1 (A96 vs untreated (UT)): 0.998
Apoc1 avg_logFC (A96 vs untreated (UT)): 0.5008
Apoc1 pct.1 (A96 vs untreated (UT)): 1
Apoc2 avg_logFC (A96 vs untreated (UT)): 0.5187
Apoc2 pct.1 (A96 vs untreated (UT)): 0.901
Apoc3 avg_logFC (A96 vs untreated (UT)): 0.3002
Apoe avg_logFC (A96 vs untreated (UT)): 0.327
Apoe pct.1 (A96 vs untreated (UT)): 1
Apoh avg_logFC (A96 vs untreated (UT)): 0.3467
Apoh pct.1 (A96 vs untreated (UT)): 0.998
Apol7a avg_logFC (A96 vs untreated (UT)): 0.2716
Apol7a pct.1 (A96 vs untreated (UT)): 0.559
Aqp9 avg_logFC (A96 vs untreated (UT)): 0.3346
Aqp9 pct.1 (A96 vs untreated (UT)): 0.801
Arl4a avg_logFC (A96 vs untreated (UT)): 0.2911
Arl4a pct.1 (A96 vs untreated (UT)): 0.517
Asl avg_logFC (A96 vs untreated (UT)): 0.4141
Asl pct.1 (A96 vs untreated (UT)): 0.896
Atf5 avg_logFC (A96 vs untreated (UT)): 0.2708
Atf5 pct.1 (A96 vs untreated (UT)): 0.745
Atp5k avg_logFC (A96 vs untreated (UT)): 0.4068
Atp5k pct.1 (A96 vs untreated (UT)): 0.837
Atp5h avg_logFC (A96 vs untreated (UT)): 0.3114
Atp5h pct.1 (A96 vs untreated (UT)): 0.848
Atxn7l3b avg_logFC (A96 vs untreated (UT)): 0.2828
Atxn7l3b pct.1 (A96 vs untreated (UT)): 0.654
BC005537 avg_logFC (A96 vs untreated (UT)): 0.2869
BC005537 pct.1 (A96 vs untreated (UT)): 0.611
Baat avg_logFC (A96 vs untreated (UT)): 0.2625
Baat pct.1 (A96 vs untreated (UT)): 0.862
Bche avg_logFC (A96 vs untreated (UT)): 0.3287
Bche pct.1 (A96 vs untreated (UT)): 0.588
Bnip3 avg_logFC (A96 vs untreated (UT)): 0.3443
Bnip3 pct.1 (A96 vs untreated (UT)): 0.716
Brap avg_logFC (A96 vs untreated (UT)): 0.3113
Brap pct.1 (A96 vs untreated (UT)): 0.642
Brd2 avg_logFC (A96 vs untreated (UT)): 0.3104
Brd2 pct.1 (A96 vs untreated (UT)): 0.601
Cbr1 avg_logFC (A96 vs untreated (UT)): 0.2829
Cbr1 pct.1 (A96 vs untreated (UT)): 0.591
Cd36 avg_logFC (A96 vs untreated (UT)): 0.3312
Cd36 pct.1 (A96 vs untreated (UT)): 0.299
Cdo1 avg_logFC (A96 vs untreated (UT)): 0.5679
Cdo1 pct.1 (A96 vs untreated (UT)): 0.998
Ces1c avg_logFC (A96 vs untreated (UT)): 0.3583
Ces1c pct.1 (A96 vs untreated (UT)): 1
Ces1e avg_logFC (A96 vs untreated (UT)): 0.2944
Ces1e pct.1 (A96 vs untreated (UT)): 0.71
Ces3a avg_logFC (A96 vs untreated (UT)): −0.2844
Ces3a pct.1 (A96 vs untreated (UT)): 0.97
Ces3b avg_logFC (A96 vs untreated (UT)): −0.3398
Ces3b pct.1 (A96 vs untreated (UT)): 0.685

— patent US20230053540A1, “TREATMENT OF LIVER INJURY” (Massachusetts Institute of Technology, priority 2019, published 2023)
